# From patent publication US20220322673A1, “Novel Agrochemical Combinations” (UPL LIMITED, priority 2019, published 2022)
# Where two headings read alike, the source gives them in different places.
# Columns and labels:
# Format in all cases: in vivo
# [1] = tested on: Corn FAW (Spodoptera frugiperda); settings: for Percent control (%) A01: A01 = 1 day after first spray; for Percent control (%) A14: A14 = 14 days after 1st spray; for Percent control (%) B03: B03 = 3 days after 2nd spray; for Percent control (%) B07: B07 (after 2nd spray); for Percent control (%) B10: B10 (after 2nd spray); for Percent control (%) B21: B21 (after 2nd spray)
# From the text: Application method: Two applications (application A and B) within an interval of 14 days. A01=1 day after first spray, A14=14 days after 1st spray, B03=3 days after 2nd spray.
# Okra Mites = experiment: Trials on controlling Okra Mites post 2nd and 3rd application (Example 2); settings: doses gm/ha: OSA 625 + Flonicamid 50 / Acetamipirid 50 / Lancer Gold 650, solo OSA 1250, Flonicamid 75, Acetamipirid 50, Lancer gold 650
# Procedure: Trials were conducted to test the efficacy of the combination of Flonicamid and Orthosilicic acid on controlling Okra Mites at different dosages post 2nd and 3rd application.
# [2] = tested on: Okra Aphids (Aphis gossypii); settings: for Percent control (%) of Okra Aphids, Nymphs + Adults, A01: A01 = 1 day after first spray; for Percent control (%) of Okra Aphids, Nymphs + Adults, B03: B03 = 3 days after 2nd spray; for Percent control (%) of Okra Aphids, Nymphs + Adults, B07: B07 (after 2nd spray); for Percent control (%) of Okra Aphids, Nymphs + Adults, B10: B10 (after 2nd spray); for Percent control (%) of Okra Aphids, Nymphs + Adults, C03: C03 = 3 days after third spray; for Percent control (%) of Okra Aphids, Nymphs + Adults, C10: C10 (after third spray)
# From the text: (§1) In this evaluation, feeding damage & insect population on Okra Leaves before and after sprays is averaged and analyzed for the test of significance. Application method: Three applications (application A, B and C) within an interval of 14 days.
# [3] = tested on: Okra Jassids (Amrasca bigutulla bigutulla); settings: for Percent control (%) of Okra Jassids, Nymphs + Adults, A01: A01 = 1 day after first spray; for Percent control (%) of Okra Jassids, Nymphs + Adults, A10: A10 (after 1st spray); for Percent control (%) of Okra Jassids, Nymphs + Adults, B03: B03 = 3 days after 2nd spray; for Percent control (%) of Okra Jassids, Nymphs + Adults, B07: B07 (after 2nd spray); for Percent control (%) of Okra Jassids, Nymphs + Adults, B10: B10 (after 2nd spray); for Percent control (%) of Okra Jassids, Nymphs + Adults, B14: B14 (after 2nd spray); for Percent control (%) of Okra Jassids, Nymphs + Adults, C03: C03 = 3 days after third spray; for Percent control (%) of Okra Jassids, Nymphs + Adults, C10: C10 (after third spray)
# From the text: as §1
# [4] = 25% reduced dose of insecticide, gm a.i./ha: OSA 25, CTPR 22.5, Acephate 730, Novaluron 56, Novaluron+Lambda cyhalothrin 67.5, Novaluron+Emamectin 93.5
# [5] = doses gm a.i./ha: OSA 25, CTPR 30, Acephate 970, Novaluron 75, Novaluron+Lambda cyhalothrin 90, Novaluron+Emamectin 125
# [6] = doses gm a.i./ha: OSA 25, Flonicamid 100, Acephate+Imidacloprid 520, Flonicamid+Fipronil 100+50, Imidacloprid 24.5, Acetamiprid 15
# [7] = reduced insecticide dose, gm a.i./ha: OSA 25, Flonicamid (Ulala) 75, Acephate+Imidacloprid 390, Flonicamid+Fipronil 75+37.5, Imidacloprid 18.3, Acetamiprid 11.2
# [8] = 25% reduced dose rate, gm a.i./ha: OSA 25, Flonicamid 75, Acephate+Imidacloprid 390, Flonicamid+Fipronil 75+37.5, Imidacloprid 18.3, Acetamiprid 11.2
smiles,measurement,setting,value
"O=C(NC(=O)c1c(F)cccc1F)Nc1ccc(OC(F)(F)C(F)OC(F)(F)F)c(Cl)c1 (racemic) [Novaluron, (±)-1-[3-chloro-4-(1,1,2-trifluoro-2-trifluoro-methoxyethoxy)phenyl]-3-(2,6-difluorobenzoyl)urea]",Percent control (%) A01,[1]; [4],59.3%
same,Percent control (%) A01,[1]; [5],60.5%
same,Percent control (%) A14,[1]; [4],58.7%
same,Percent control (%) A14,[1]; [5],72.5%
same,Percent control (%) B03,[1]; [4],68.9%
same,Percent control (%) B03,[1]; [5],79.9%
same,Percent control (%) B07,[1]; [4],70.1%
same,Percent control (%) B07,[1]; [5],88.8%
same,Percent control (%) B10,[1]; [4],74.6%
same,Percent control (%) B10,[1]; [5],88.9%
same,Percent control (%) B21,[1]; [4],73.9%
same,Percent control (%) B21,[1]; [5],84.7%
COP(=O)(NC(C)=O)SC (stereo not shown) [Acephate],Percent control (%) A01,[1]; [4],46.8%
same,Percent control (%) A01,[1]; [5],58.1%
same,Percent control (%) A14,[1]; [4],50.3%
same,Percent control (%) A14,[1]; [5],69.7%
same,Percent control (%) B03,[1]; [4],62.1%
same,Percent control (%) B03,[1]; [5],76.4%
same,Percent control (%) B07,[1]; [4],63.9%
same,Percent control (%) B07,[1]; [5],80.5%
same,Percent control (%) B10,[1]; [4],64.1%
same,Percent control (%) B10,[1]; [5],83.2%
same,Percent control (%) B21,[1]; [4],61.6%
same,Percent control (%) B21,[1]; [5],80.3%
"C/C(=N\C#N)N(C)Cc1ccc(Cl)nc1 [Acetamipirid, Acetamiprid]",Percent control B07,Okra Mites; B07,24.6%
same,Percent control C-01,Okra Mites; C-01,26.9%
same,Percent control C-10,Okra Mites; C-10,22.2%
same,Percent control Mean,"Okra Mites; Mean of B07, C-01, C-10",24.56%
same,"Percent control (%) of Okra Aphids, Nymphs + Adults, A01",[2]; [6],71.1%
same,"Percent control (%) of Okra Aphids, Nymphs + Adults, A01",[2]; [7],64.8%
same,"Percent control (%) of Okra Aphids, Nymphs + Adults, A10","[2]; A10 (after 1st spray), doses gm a.i./ha: OSA 25, Flonicamid 100, Acephate+Imidacloprid 520, Flonicamid+Fipronil 100+50, Imidacloprid 24.5, Acetamiprid 15",86.1%
same,"Percent control (%) of Okra Aphids, Nymphs + Adults, A14","[2]; A14 = 14 days after 1st spray, reduced insecticide dose, gm a.i./ha: OSA 25, Flonicamid (Ulala) 75, Acephate+Imidacloprid 390, Flonicamid+Fipronil 75+37.5, Imidacloprid 18.3, Acetamiprid 11.2",74.7%
same,"Percent control (%) of Okra Aphids, Nymphs + Adults, B03",[2]; [6],86.8%
same,"Percent control (%) of Okra Aphids, Nymphs + Adults, B03",[2]; [7],79.7%
same,"Percent control (%) of Okra Aphids, Nymphs + Adults, B07",[2]; [6],86.7%
same,"Percent control (%) of Okra Aphids, Nymphs + Adults, B07",[2]; [7],81.8%
same,"Percent control (%) of Okra Aphids, Nymphs + Adults, B10",[2]; [6],85%
same,"Percent control (%) of Okra Aphids, Nymphs + Adults, B10",[2]; [7],82.5%
same,"Percent control (%) of Okra Aphids, Nymphs + Adults, C03",[2]; [6],87.4%
same,"Percent control (%) of Okra Aphids, Nymphs + Adults, C03",[2]; [7],86.9%
same,"Percent control (%) of Okra Aphids, Nymphs + Adults, C10",[2]; [6],87.6%
same,"Percent control (%) of Okra Aphids, Nymphs + Adults, C10",[2]; [7],86.5%
same,"Percent control (%) of Okra Jassids, Nymphs + Adults, A01",[3]; [8],59.3%
same,"Percent control (%) of Okra Jassids, Nymphs + Adults, A01",[3]; [6],66.4%
same,"Percent control (%) of Okra Jassids, Nymphs + Adults, A10",[3]; [8],64.4%
same,"Percent control (%) of Okra Jassids, Nymphs + Adults, A10",[3]; [6],72.4%
same,"Percent control (%) of Okra Jassids, Nymphs + Adults, B03",[3]; [8],68.8%
same,"Percent control (%) of Okra Jassids, Nymphs + Adults, B03",[3]; [6],73.9%
same,"Percent control (%) of Okra Jassids, Nymphs + Adults, B07",[3]; [8],70.9%
same,"Percent control (%) of Okra Jassids, Nymphs + Adults, B07",[3]; [6],76.7%
same,"Percent control (%) of Okra Jassids, Nymphs + Adults, B10",[3]; [8],71.3%
same,"Percent control (%) of Okra Jassids, Nymphs + Adults, B10",[3]; [6],76.9%
same,"Percent control (%) of Okra Jassids, Nymphs + Adults, B14",[3]; [8],66.6%
same,"Percent control (%) of Okra Jassids, Nymphs + Adults, B14",[3]; [6],70.9%
same,"Percent control (%) of Okra Jassids, Nymphs + Adults, C03",[3]; [8],69.5%
same,"Percent control (%) of Okra Jassids, Nymphs + Adults, C03",[3]; [6],74.8%
same,"Percent control (%) of Okra Jassids, Nymphs + Adults, C10",[3]; [8],70.7%
same,"Percent control (%) of Okra Jassids, Nymphs + Adults, C10",[3]; [6],79.3%
"CNC(=O)c1cc(Cl)cc(C)c1NC(=O)c1cc(Br)nn1-c1ncccc1Cl [CTPR, Chlorantraniliprole]",Percent control (%) A01,[1]; [4],57.1%
same,Percent control (%) A01,[1]; [5],67.6%
same,Percent control (%) A14,[1]; [4],66.8%
same,Percent control (%) A14,[1]; [5],75.2%
same,Percent control (%) B03,[1]; [4],75%
same,Percent control (%) B03,[1]; [5],79.9%
same,Percent control (%) B07,[1]; [4],77.2%
same,Percent control (%) B07,[1]; [5],86.8%
same,Percent control (%) B10,[1]; [4],76.2%
same,Percent control (%) B10,[1]; [5],88.9%
same,Percent control (%) B21,[1]; [4],74.6%
same,Percent control (%) B21,[1]; [5],87.0%
